Data taken from patent US20140275275A1, “Chlorhexadine Antiseptic” (CARNELL & HERZOG, LLC, priority 2013, published 2014).

System: methicillin-resistant Staphylococcus aureus
Test: In-vitro time-kill test on S. aureus (MRSA)
Settings: for Post-exposure population: inoculum 1.460×10^7 CFU/ML
Experimental: This example compares the test composition to a solution of 4% chlorhexidine gluconate. The microorganism used in the test was methicillin-resistant Staphylococcus aureus.
An in-vitro time-kill test was performed on S. aureus using both the test composition and the solution of 4% chlorhexidine gluconate. A S. aureus suspension with an inoculum level of 1.460×10^7 colony-forming units (CFU)/ML was used for all tests. A 0.1 mL aliquot of the S. aureus suspension was added to 9.9 mL of the test composition or the 4% chlorhexidine gluconate solution and exposed for periods of one minute, five minutes, and 10 minutes. At the end of each exposure period, a neutralizer was added to stop the bactericidal activity.

## N=C(NCCCCCCNC(=N)NC(=N)Nc1ccc(Cl)cc1)NC(=N)Nc1ccc(Cl)cc1.O=C(O)[C@H](O)[C@@H](O)[C@H](O)[C@H](O)CO.O=C(O)[C@H](O)[C@@H](O)[C@H](O)[C@H](O)CO [4% chlorhexidine gluconate, chlorhexidine gluconate]
Exposure 1 minute
  Log10 reduction: 4.0798 Log10
  Percent reduction: 99.9917%
  Post-exposure population: 1.2150 × 10^3 CFU/ML
Exposure 5 minutes
  Log10 reduction: 6.1644 Log10
  Percent reduction: 99.9999%
  Post-exposure population: <1.00 × 10^1 CFU/ML
Exposure 10 minutes
  Log10 reduction: 6.1644 Log10
  Percent reduction: 99.9999%
  Post-exposure population: <1.00 × 10^1 CFU/ML
